Results from patent publication US7074789B2, “Kinase inhibitors” (Amgen Inc., priority 1999, dated 2006).
Where two headings read alike, the source gives them in different places.

Columns and labels:
Type in all cases: biochemical
[1] = target: T1, IGFR-1 (Homo sapiens, UniProt P08069); assay: Kinase inhibition assay (33P transfer), IGFR-1; details: Table 2, kinase inhibition class
T1 construct: Kinases are expressed as either kinase domains or full length constructs; made in house

[2] = target: T2, EPHB4 (Homo sapiens, UniProt P54760); assay: Kinase inhibition assay (33P transfer), EPHB4; details: read-out: EPHB4-1
T2 construct: Kinases are expressed as either kinase domains or full length constructs; made in house
T2 sequence (P54760 16-987): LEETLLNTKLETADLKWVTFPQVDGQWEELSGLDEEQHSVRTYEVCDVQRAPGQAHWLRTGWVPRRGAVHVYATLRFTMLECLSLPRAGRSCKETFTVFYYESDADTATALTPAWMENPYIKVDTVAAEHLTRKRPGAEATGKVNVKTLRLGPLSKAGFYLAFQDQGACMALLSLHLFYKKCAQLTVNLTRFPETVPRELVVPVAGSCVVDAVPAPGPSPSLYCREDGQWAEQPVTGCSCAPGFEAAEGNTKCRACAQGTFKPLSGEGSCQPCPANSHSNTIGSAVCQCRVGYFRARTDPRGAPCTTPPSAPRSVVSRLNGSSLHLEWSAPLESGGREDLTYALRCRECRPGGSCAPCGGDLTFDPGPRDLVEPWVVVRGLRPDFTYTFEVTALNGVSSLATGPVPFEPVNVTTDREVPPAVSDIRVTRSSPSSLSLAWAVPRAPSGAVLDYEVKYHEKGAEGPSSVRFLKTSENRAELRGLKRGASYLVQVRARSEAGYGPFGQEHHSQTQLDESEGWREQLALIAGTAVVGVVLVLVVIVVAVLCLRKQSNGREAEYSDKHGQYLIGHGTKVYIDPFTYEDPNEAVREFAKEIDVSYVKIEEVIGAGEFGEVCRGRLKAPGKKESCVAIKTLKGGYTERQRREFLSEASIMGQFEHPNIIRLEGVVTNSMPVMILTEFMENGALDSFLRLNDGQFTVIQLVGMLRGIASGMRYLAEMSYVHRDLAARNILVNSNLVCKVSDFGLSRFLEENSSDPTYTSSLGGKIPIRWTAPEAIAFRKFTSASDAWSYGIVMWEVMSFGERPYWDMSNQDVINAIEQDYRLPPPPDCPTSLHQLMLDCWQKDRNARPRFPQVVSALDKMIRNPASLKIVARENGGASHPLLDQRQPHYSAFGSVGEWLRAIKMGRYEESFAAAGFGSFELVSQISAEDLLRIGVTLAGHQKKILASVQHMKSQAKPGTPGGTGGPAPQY

[3] = target: T3, Zap-70 (Homo sapiens, UniProt P43403); assay: Kinase inhibition assay (33P transfer), Zap-70; details: read-out: Zap-1
T3 construct: Kinases are expressed as either kinase domains or full length constructs; made in house
T3 sequence (P43403 1-619): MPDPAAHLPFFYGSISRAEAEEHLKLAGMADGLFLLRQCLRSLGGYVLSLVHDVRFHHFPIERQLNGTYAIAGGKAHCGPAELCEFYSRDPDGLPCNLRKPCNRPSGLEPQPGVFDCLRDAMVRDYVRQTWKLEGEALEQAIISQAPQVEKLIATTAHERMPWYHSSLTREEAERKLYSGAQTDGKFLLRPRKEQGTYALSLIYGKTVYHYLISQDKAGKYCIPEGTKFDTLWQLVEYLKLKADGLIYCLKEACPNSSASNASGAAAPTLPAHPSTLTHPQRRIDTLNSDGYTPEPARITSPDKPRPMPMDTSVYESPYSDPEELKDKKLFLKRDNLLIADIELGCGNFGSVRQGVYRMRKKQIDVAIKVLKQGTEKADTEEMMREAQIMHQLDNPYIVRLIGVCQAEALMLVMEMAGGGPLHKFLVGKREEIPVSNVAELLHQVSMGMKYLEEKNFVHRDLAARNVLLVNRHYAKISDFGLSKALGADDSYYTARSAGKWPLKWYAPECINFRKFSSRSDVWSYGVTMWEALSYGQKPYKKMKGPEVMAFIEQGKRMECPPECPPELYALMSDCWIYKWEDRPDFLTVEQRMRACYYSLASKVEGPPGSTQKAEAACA
Procedure, shortened: (§1)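 GST/His-tagged kinase (domain or full length; E. coli or baculovirus) + [33P]ATP on plates coated with poly(Glu,Tyr) 4:1 or poly(Arg,Ser) 3:1; incubate, wash 0.5% H3PO4, add scintillant, count.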

[4] = target: T4, c-Met (Homo sapiens, UniProt P08581); assay: Kinase inhibition assay (33P transfer), c-Met; details: Table 2, kinase inhibition class; read-out: Met-1
T4 construct: Kinases are expressed as either kinase domains or full length constructs; made in house
T4 sequence (P08581 25-1390): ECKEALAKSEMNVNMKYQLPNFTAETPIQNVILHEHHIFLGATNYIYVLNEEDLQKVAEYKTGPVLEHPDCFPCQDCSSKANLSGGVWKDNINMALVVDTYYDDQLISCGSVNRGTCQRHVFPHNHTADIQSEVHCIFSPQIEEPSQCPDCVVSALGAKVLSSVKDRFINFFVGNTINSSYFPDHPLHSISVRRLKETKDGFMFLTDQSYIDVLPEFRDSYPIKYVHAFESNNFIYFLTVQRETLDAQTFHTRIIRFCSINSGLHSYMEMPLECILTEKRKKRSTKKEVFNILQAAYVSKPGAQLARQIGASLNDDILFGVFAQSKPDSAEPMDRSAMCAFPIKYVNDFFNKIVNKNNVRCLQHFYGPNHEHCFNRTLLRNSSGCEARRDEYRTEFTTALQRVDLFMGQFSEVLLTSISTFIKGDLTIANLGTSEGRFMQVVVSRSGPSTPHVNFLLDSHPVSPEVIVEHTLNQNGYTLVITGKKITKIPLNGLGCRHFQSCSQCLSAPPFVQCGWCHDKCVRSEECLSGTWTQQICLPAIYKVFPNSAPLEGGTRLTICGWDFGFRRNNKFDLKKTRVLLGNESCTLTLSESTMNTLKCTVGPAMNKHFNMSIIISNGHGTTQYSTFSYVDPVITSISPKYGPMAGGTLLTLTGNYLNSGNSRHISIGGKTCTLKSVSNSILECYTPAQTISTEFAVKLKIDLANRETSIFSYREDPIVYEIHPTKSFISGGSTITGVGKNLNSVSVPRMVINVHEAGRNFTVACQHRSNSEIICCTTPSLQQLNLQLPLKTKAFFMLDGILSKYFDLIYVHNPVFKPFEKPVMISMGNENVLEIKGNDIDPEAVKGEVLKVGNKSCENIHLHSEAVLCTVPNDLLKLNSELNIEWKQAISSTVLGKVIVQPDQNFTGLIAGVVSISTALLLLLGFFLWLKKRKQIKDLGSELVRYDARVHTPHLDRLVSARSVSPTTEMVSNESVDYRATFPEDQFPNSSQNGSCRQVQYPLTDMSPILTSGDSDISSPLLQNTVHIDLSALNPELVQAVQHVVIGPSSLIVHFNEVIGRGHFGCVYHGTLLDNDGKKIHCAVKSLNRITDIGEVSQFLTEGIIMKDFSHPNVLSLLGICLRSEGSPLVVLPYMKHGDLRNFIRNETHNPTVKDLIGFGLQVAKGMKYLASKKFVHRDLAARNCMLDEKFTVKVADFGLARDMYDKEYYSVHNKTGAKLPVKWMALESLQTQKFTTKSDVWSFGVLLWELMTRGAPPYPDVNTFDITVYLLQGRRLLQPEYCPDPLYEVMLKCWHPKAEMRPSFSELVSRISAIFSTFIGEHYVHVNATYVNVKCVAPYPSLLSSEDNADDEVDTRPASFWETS
Procedure, shortened: (§2)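 IC50: inhibitor concentration lowering 33P incorporation into immobilised substrate by 50%. Label transferred from ATP to poly(Glu,Tyr) 4:1 or poly(Arg,Ser) 3:1 is measured after a 0.5% phosphoric acid wash by liquid scintillation.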

[5] = target: T5, EGFR (Homo sapiens, UniProt P00533); assay: Kinase inhibition assay (33P transfer), EGFR; details: Table 2, kinase inhibition class; read-out: EGFR-1
T5 construct: Kinases are expressed as either kinase domains or full length constructs; made in house
T5 sequence (P00533 25-1210, species assumed): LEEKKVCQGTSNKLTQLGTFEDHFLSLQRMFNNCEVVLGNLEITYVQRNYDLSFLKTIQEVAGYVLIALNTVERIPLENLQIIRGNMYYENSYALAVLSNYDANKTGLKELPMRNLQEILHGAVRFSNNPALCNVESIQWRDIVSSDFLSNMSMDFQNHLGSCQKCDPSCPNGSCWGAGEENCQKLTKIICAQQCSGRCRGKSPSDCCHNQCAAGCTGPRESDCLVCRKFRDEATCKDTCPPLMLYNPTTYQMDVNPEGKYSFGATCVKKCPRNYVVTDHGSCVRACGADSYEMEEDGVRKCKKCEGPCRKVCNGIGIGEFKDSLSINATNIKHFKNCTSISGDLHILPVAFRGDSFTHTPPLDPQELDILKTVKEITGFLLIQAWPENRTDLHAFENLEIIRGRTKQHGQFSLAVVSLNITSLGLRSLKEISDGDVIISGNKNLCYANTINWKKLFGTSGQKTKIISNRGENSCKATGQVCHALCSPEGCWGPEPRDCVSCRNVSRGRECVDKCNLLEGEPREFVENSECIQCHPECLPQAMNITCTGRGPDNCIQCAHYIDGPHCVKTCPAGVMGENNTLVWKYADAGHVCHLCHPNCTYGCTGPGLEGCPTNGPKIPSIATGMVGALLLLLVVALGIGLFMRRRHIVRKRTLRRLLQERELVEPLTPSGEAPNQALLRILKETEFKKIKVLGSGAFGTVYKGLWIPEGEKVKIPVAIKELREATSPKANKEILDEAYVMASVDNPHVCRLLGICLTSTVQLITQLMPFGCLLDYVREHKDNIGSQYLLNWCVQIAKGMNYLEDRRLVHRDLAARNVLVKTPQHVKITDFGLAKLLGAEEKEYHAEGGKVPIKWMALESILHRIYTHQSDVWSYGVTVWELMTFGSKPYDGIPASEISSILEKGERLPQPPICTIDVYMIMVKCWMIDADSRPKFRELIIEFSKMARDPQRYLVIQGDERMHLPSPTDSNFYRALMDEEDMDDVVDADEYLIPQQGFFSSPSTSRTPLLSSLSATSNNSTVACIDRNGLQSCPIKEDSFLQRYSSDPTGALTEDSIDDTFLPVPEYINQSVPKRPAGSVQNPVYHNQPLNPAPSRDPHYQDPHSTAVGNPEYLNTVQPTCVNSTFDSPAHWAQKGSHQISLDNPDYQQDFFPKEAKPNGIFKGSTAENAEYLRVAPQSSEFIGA
Procedure, shortened: as §2

[6] = target: T6, Kdr (Homo sapiens, UniProt P35968); assay: Kinase inhibition assay (33P transfer), Kdr; details: read-out: KDR-1
T6 construct: Kinases are expressed as either kinase domains or full length constructs; made in house
T6 sequence (P35968 20-1356, species assumed): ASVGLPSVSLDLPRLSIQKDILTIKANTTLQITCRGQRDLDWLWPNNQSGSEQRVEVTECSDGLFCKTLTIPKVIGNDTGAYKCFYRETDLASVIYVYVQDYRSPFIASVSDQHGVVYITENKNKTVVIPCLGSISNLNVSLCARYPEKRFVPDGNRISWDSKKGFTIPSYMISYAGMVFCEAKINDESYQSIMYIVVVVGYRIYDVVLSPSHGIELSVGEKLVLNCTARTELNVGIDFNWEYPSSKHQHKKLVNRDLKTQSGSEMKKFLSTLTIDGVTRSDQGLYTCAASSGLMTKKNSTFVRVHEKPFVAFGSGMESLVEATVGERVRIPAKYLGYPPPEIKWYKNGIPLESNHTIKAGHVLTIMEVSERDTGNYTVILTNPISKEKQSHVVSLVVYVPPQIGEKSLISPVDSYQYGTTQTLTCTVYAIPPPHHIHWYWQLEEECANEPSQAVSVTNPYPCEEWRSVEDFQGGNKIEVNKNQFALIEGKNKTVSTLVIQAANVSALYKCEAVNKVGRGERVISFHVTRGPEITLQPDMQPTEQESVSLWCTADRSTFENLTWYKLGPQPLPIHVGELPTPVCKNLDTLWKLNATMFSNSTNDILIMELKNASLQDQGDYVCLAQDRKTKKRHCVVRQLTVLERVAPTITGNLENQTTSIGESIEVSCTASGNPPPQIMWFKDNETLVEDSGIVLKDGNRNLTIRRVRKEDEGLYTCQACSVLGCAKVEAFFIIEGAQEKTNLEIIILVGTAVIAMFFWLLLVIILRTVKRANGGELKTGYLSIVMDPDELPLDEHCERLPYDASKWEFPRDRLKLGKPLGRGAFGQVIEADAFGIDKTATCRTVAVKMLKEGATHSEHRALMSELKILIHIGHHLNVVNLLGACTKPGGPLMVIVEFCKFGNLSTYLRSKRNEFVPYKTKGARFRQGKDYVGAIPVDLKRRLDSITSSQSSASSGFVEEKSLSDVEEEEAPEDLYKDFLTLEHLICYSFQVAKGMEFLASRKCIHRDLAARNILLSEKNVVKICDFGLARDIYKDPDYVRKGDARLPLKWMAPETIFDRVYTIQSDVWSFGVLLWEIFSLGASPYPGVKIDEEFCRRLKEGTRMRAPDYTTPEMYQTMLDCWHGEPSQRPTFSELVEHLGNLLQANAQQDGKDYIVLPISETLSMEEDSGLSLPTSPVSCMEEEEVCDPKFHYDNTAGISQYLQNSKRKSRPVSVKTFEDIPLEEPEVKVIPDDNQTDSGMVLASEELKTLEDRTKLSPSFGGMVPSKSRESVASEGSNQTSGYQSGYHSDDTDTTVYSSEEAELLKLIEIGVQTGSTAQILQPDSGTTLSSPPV
Procedure, shortened: as §1

[7] = target: T7, AKT (Homo sapiens, UniProt Q9Y243); assay: Kinase inhibition assay (33P transfer), AKT; details: Table 2, kinase inhibition class; read-out: AKT3-1
T7 construct: Kinases are expressed as either kinase domains or full length constructs; made in house
T7 sequence (Q9Y243 whole entry, the tested form may be a part): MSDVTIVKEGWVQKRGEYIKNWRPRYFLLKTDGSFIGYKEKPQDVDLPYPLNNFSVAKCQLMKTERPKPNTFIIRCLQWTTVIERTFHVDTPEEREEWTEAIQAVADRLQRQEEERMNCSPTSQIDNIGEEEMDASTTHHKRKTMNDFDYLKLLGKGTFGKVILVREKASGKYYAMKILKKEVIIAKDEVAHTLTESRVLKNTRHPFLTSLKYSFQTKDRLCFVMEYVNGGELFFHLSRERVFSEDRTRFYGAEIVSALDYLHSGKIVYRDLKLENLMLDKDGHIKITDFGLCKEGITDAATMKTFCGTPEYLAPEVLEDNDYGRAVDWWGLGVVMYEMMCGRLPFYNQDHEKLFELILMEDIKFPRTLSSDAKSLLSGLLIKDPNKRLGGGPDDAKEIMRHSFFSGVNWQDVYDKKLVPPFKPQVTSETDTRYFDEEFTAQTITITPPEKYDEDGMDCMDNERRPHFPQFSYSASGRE
Procedure, shortened: as §1

[8] = target: T8, Lck (Homo sapiens, UniProt P06239); assay: Kinase inhibition assay (33P transfer), Lck; details: read-out: Lck-1
T8 construct: Kinases are expressed as either kinase domains or full length constructs; made in house
T8 sequence (P06239 whole entry, species assumed, the tested form may be a part): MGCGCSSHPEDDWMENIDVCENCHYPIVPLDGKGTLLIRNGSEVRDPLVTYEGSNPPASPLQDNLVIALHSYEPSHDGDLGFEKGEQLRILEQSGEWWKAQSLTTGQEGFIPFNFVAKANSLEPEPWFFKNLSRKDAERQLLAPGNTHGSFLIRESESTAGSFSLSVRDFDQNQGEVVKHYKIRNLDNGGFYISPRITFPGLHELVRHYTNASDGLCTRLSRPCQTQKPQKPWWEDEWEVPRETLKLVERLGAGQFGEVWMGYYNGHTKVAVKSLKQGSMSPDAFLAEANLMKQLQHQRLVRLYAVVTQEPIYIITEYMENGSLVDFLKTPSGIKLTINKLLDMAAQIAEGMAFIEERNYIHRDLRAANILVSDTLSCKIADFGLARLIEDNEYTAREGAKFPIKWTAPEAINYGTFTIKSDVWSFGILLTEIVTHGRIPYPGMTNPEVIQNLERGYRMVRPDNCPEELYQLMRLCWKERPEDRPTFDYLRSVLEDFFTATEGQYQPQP
Procedure, shortened: as §1

[9] = target: T9, Itk (Homo sapiens, UniProt Q08881); assay: Kinase inhibition assay (33P transfer), Itk; details: read-out: Itk-1
T9 construct: Kinases are expressed as either kinase domains or full length constructs; made in house
T9 sequence (Q08881 1-620): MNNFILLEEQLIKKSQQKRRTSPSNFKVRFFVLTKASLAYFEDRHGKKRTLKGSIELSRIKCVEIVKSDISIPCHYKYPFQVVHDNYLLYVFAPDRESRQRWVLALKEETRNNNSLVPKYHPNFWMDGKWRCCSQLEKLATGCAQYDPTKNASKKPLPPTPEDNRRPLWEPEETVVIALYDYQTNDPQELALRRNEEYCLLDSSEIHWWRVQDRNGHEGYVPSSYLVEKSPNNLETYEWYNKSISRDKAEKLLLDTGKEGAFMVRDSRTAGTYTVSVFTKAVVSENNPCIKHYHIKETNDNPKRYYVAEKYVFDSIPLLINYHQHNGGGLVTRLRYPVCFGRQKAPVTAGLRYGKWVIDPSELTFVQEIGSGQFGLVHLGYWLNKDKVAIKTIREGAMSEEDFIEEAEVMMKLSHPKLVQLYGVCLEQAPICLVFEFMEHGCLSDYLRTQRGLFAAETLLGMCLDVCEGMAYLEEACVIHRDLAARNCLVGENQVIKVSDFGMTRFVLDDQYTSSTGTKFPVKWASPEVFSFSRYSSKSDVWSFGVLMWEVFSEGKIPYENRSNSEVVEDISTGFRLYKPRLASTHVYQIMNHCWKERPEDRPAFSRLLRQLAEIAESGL
Procedure, shortened: as §2

[10] = target: T10, Src (Homo sapiens, UniProt P12931); assay: Kinase inhibition assay (33P transfer), Src; details: Table 6, Src-1 kinase inhibition class
T10 construct: Kinases are expressed as either kinase domains or full length constructs; made in house
Procedure, shortened: as §2

[11] = target: T11, PDGFRB (Homo sapiens, UniProt P09619); assay: Kinase inhibition assay (33P transfer), PDGFRB; details: read-out: PDGFRB-1
T11 construct: Kinases are expressed as either kinase domains or full length constructs; made in house

[12] = target: T12, Hck-1 (Homo sapiens, UniProt P08631); assay: Kinase inhibition assay (33P transfer), Hck; details: Table 6, Hck-1 kinase inhibition class
T12 construct: Kinases are expressed as either kinase domains or full length constructs; made in house

[13] = target: T13, Flt-1 (Homo sapiens, UniProt P17948); assay: Kinase inhibition assay (33P transfer), Flt-1
T13 construct: Kinases are expressed as either kinase domains or full length constructs; made in house
Procedure, shortened: as §2

[14] = target: T1, IGFR-1; assay: Kinase inhibition assay, IGFR-1 (Table 2); details: Table 2, kinase inhibition class
[15] = target: T14, FGFR1 (Homo sapiens, UniProt P11362); assay: Kinase inhibition assay (33P transfer), FGFR1; details: read-out: FGFR1-1
T14 construct: Kinases are expressed as either kinase domains or full length constructs; made in house

[16] = target: T15, Tek (Homo sapiens, UniProt Q02763); assay: Kinase inhibition assay (33P transfer), Tek; details: read-out: Tek-1
T15 construct: Kinases are expressed as either kinase domains or full length constructs; made in house
Procedure, shortened: as §2

[17] = target: T11, PDGFRB; assay: Kinase inhibition assay (33P transfer), PDGFRB; details: read-out: PDGFRB-1; remark: listed apart in the source
[18] = target: T16, ErbB4 (Homo sapiens, UniProt Q15303); assay: Kinase inhibition assay (33P transfer), ErbB4; details: read-out: ErbB4-1
T16 construct: Kinases are expressed as either kinase domains or full length constructs; made in house

[19] = target: T17, ErbB2 (Homo sapiens, UniProt P04626); assay: Kinase inhibition assay (33P transfer), ErbB2; details: read-out: ErbB2-2
T17 construct: Kinases are expressed as either kinase domains or full length constructs; made in house
Procedure, shortened: as §2

[20] = target: T18, Fyn (Homo sapiens, UniProt P06241); assay: Kinase inhibition assay (33P transfer), Fyn; details: read-out: Fyn-1
T18 construct: Kinases are expressed as either kinase domains or full length constructs; made in house
Procedure, shortened: as §2

[21] = target: T19, Lyn (Homo sapiens, UniProt P07948); assay: Kinase inhibition assay (33P transfer), Lyn; details: Table 6, Lyn-1 kinase inhibition class
T19 construct: Kinases are expressed as either kinase domains or full length constructs; made in house
Procedure, shortened: as §2

Compound	IC50 [1]	IC50 [2]	IC50 ([3]; Table 3)	IC50 [4]	IC50 [5]	IC50 ([6]; Table 3)	IC50 [7]	IC50 ([8]; Table 3)	IC50 ([9]; Table 3)	other results
COC(=O)c1cc(Nc2ncnc(Nc3cc(-c4ccco4)n[nH]3)n2)cc(C(=O)OC)c1 [Compound 343]	0.919 to 5.51 µM	0.919 to 5.51 µM	> 10.3 µM	8.04 to 10.3 µM	> 10.3 µM	0.919 to 5.51 µM	> 10.3 µM	> 10.3 µM	> 10.3 µM	–
COc1cc(Nc2ncnc(-n3c(Nc4ccc(C#N)cc4)nc4ccccc43)n2)cc(OC)c1OC [Compound 381]	> 9.1 µM	0.809 to 4.85 µM	> 9.1 µM	7.08 to 9.1 µM	> 9.1 µM	4.85 to 7.08 µM	> 9.1 µM	7.08 to 9.1 µM	> 9.1 µM	–
COc1cc(Nc2ncnc(-n3c(NCc4ccccn4)nc4ccccc43)n2)cc(OC)c1OC [Compound 414]	> 9.29 µM	–	> 9.29 µM	> 9.29 µM	> 9.29 µM	< 0.826 µM	> 9.29 µM	> 9.29 µM	> 9.29 µM	IC50 [10]: > 9.29 µM; IC50 [11]: < 0.826 µM; IC50 [3]: > 9.29 µM; IC50 [12]: > 9.29 µM; IC50 [13]: < 0.826 µM; IC50 [14]: 7.22 to 9.29 µM; IC50 [15]: < 0.826 µM; IC50 [16]: > 9.29 µM; IC50 [17]: < 0.826 µM; IC50 [18]: > 9.29 µM; IC50 [19]: > 9.29 µM; IC50 [6]: < 0.826 µM; IC50 [8]: 0.826 to 4.95 µM; IC50 [20]: 0.826 to 4.95 µM; IC50 [9]: > 9.29 µM; IC50 [21]: > 9.29 µM
